Measurements taken from US20110039926A1 (priority 2008, published 2011).

How the values were obtained:
[1] = test system: patients suffering from psychiatric disorders (among them MDD); details: several trials, patients with psychiatric disorders (among them MDD); cited from earlier work
[2] = compared with other psychotropic products such as clomipramine and milnacipran; cited from earlier work
[3] = test system: patients with Major Depressive Disorders (MDD); assay: multi-center, randomised, double-blinded, placebo-controlled 10 weeks study of F2695 in Major Depressive Disorders; assay type: in vivo, human
Description: This was a multi-center, randomised, double-blinded, placebo-controlled 10 weeks study, assessing the efficacy and safety of F2695 flexible safety adapted dose in the treatment of patients with Major Depressive Disorders (MDD).
This study enrolled 563 patients who met the DSM-IV criteria for major depression with depression severity at the inclusion time assessed by HAM-D 17 score >22.
Patients were randomised to receive placebo or a flexible safety adapted dose by increasing progressively the administered doses using slow release capsules containing 25 or 50 mg of active drug (281 patients for placebo and 282 patients for F2695).
Placebo as well as F2695 were administered once a day as slow release capsules.
Slow release capsules were constituted of a plurality of minigranules each containing an active minisphere comprising a sucrose core containing F2695 as well as PVP as a binding agent; each minigranule being coated with a film of ethyl cellulose as described in EP 939 626. Placebo was constituted of the same slow release capsules of minigranules containing minispheres constituted only of a sucrose core.
The doses were administered in a dose escalation regimen during 10 days for initial titration. […]
Safety of F2695 was assessed by analysing: • frequency and intensity of adverse events as classified in the ICH guidelines (any adverse change from the subject's baseline condition, i.e. any subjective signs and symptoms, or change in a concomitant disease present at the selection visit, either considered or not related to the treatment) • suicidal risk evaluated by the MINI version 0.5 (modified Mini International Neuropsychiatric Interview) Efficiency of F2695 was assessed by: • MADRS Total score: change from baseline MMRM analysis (Full analysis data set) • MADRS Total score: change from baseline MMRM analysis (Per Protocol data set) • Responders and remitted patients compared to placebo group at Day 70 (end of the treatment period) Results from Safety

norepinephrine uptake = target: T1, norepinephrine uptake (Rattus norvegicus, UniProt Q63380); details: homogenate of rat hypothalamus; versus racemic milnacipran hydrochloride; cited from earlier work
T1 construct: from tissue; host or cells: rat hypothalamus homogenate
T1 sequence (Q63380 1-617): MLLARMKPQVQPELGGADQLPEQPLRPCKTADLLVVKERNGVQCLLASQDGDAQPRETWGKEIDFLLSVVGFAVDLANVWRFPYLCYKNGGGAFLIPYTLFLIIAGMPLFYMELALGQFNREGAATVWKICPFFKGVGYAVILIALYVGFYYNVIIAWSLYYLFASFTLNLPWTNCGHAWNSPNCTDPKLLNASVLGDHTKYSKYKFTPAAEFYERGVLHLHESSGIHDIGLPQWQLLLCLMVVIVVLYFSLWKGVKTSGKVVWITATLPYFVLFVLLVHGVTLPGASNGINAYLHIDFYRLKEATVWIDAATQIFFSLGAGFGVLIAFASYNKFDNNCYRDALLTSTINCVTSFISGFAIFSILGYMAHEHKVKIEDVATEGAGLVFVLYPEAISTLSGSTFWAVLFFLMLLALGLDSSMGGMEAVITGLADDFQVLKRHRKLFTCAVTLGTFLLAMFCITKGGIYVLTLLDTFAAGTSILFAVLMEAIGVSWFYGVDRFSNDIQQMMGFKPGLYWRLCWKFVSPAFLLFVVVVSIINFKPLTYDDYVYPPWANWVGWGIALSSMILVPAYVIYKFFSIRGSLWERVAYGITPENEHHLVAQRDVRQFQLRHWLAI

In the case of `CN(C)CCC[C@@]1(c2ccc(F)cc2)OCc2cc(C#N)ccc21` [escitalopram], the “odds ratio (OR) versus placebo, suicidal behaviour and ideation” value [1] is listed as 1.57.
In the case of `CCN(CC)C(=O)[C@@]1(c2ccccc2)C[C@H]1CN.Cl` [F2695, Z-(1S,2R)-2-(aminomethyl)-N,N-diethyl-1-phenyl cyclopropane carboxamide hydrochloride], the safety coefficient [2] is given as “significantly better”, the toxico-genomic profile [2] is given as “superior” and the “patients presenting significant Suicidal Risk (%)” value ([3]; During the 6-weeks treatment and follow-up, versus 2.1% upon placebo) is given as 0.4%. The “patients presenting significant Suicidal Risk” value ([3]; During the 6-weeks treatment and follow-up, versus 6 patients upon placebo) was 1 patient, the “Suicidal Risk in patients suffering from depression” value ([3]; conclusion from the odds ratio obtained in a small population) was “significantly reduced” and the “odds ratio (OR) of significant Suicidal Risk, F2695 versus placebo” value ([3]; logits method, confidence interval [0.0196, 1.3686]) was 0.1637. For the same compound, the “Insufficient response (withdrawn patients)” value ([3]; n = 282, number of patients) was 16, the “Serious Adverse Event/Non Serious Adverse Event (withdrawn patients)” value ([3]; n = 282, number of patients) was 26 and the “Therapeutic Failure (withdrawn patients)” value ([3]; n = 282, number of patients) was 22. The “Worsening of MDD (withdrawn patients)” value ([3]; n = 282, number of patients) was 11, the “Significant Suicidal Risk (withdrawn patients)” value ([3]; n = 282, number of patients, suicidal risk evaluated by the MINI) was 1 and the “Insufficient response (withdrawn patients, %)” value ([3]; n = 282, percent of group) was 5.7%. The “Serious Adverse Event/Non Serious Adverse Event (withdrawn patients, %)” value ([3]; n = 282, percent of group) was 9.2%, the “Therapeutic Failure (withdrawn patients, %)” value ([3]; n = 282, percent of group) was 7.8% and the “Worsening of MDD (withdrawn patients, %)” value ([3]; n = 282, percent of group) was 3.9%. The “Significant Suicidal Risk (withdrawn patients, %)” value ([3]; n = 282, percent of group, suicidal risk evaluated by the MINI) was 0.4% and the “efficiency in norepinephrine uptake relative to the racemate” value (norepinephrine uptake) was “two”.
